{"source": "paper PMC12775802", "about": "“Dual targeting of AMRC12 and Malassezia globosa disrupts MYC liquid condensates-driven nuclear pore complex biogenesis in neuroblastoma” (Theranostics, 2026)", "biological_target": "ARMC12 (Homo sapiens, UniProt Q5T9G4)", "sequence (Q5T9G4 1-367 isoform Q5T9G4-2)": "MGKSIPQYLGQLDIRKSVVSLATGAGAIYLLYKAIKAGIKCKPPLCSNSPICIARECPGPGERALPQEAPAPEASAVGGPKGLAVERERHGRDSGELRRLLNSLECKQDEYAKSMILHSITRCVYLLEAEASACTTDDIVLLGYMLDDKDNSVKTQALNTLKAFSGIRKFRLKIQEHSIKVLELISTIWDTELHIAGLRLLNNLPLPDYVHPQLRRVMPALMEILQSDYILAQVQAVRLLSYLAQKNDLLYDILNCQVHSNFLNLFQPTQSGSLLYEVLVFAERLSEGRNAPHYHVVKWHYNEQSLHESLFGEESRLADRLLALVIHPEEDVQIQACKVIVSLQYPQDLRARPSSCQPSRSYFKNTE", "conditions": "recombinant wild-type protein; 20 uM (Figure 4F legend; b48 prints 20 mM); 4 °C, 2 h; compound covalently conjugated to beads; site at R320", "data": [{"compound": "Clc1ccc(C(Cn2ccnc2)OCc2ccsc2Cl)c(Cl)c1", "note": "(stereo not shown) [TCZ, tioconazole]", "values": [{"measurement": "affinity purification on compound-conjugated NHS beads, western blot", "result": "TCZ directly interacted with recombinant wild-type ARMC12 protein rather than its mutant"}]}]}
